# Data: US20160101148A1, “TREATMENT AND PREVENTION OF BACTERIAL SKIN INFECTIONS USING ORITAVANCIN” (priority 2013, published 2016)
# Marks after values point to notes of the source that are not given here.
# Assays:
# [1] = test system: ABSSSI caused by susceptible gram-positive bacteria, including MRSA; assay: SOLO I and SOLO II combined, efficacy; type: in vivo, human; settings: for FDA primary endpoint: Cessation of spread, absence of fever, no rescue antibiotics / ≧20% reduction of lesion area / FDA primary endpoint: Cessation of spread, absence of fever, no rescue antibiotics, number of patients / ≧20% reduction of lesion area, number of patients / % Difference (95% CI), FDA primary endpoint / % Difference (95% CI), ≧20% reduction of lesion area / EMA primary endpoint: Investigator-assessed clinical cure / EMA primary endpoint: Investigator-assessed clinical cure, number of patients / % Difference (95% CI), investigator-assessed clinical cure: SOLO I and SOLO II combined; for FDA primary endpoint: Cessation of spread, absence of fever, no rescue antibiotics / ≧20% reduction of lesion area / FDA primary endpoint: Cessation of spread, absence of fever, no rescue antibiotics, number of patients / ≧20% reduction of lesion area, number of patients / % Difference (95% CI), FDA primary endpoint / % Difference (95% CI), ≧20% reduction of lesion area: ECE; for % Difference (95% CI), FDA primary endpoint / % Difference (95% CI), ≧20% reduction of lesion area / % Difference (95% CI), investigator-assessed clinical cure: oritavancin vs vancomycin; for EMA primary endpoint: Investigator-assessed clinical cure / EMA primary endpoint: Investigator-assessed clinical cure, number of patients / % Difference (95% CI), investigator-assessed clinical cure: PTE
# Text: (§1) Complete results were obtained from a phase 3 clinical trial program of oritavancin (SOLO), which investigated the drug for the treatment of acute bacterial skin and skin structure infections (ABSSSI) caused by susceptible gram-positive bacteria, including methicillin-resistant Staphylococcus aureus (MRSA). SOLO I and SOLO II clinical trials were identical multicenter, double-blind, randomized clinical trials.
# In microbiologically confirmed MRSA patients, efficacy was similar in both treatment groups; however, a higher proportion of MRSA-infected patients in the oritavancin group achieved the endpoint of greater than or equal to 20% reduction of lesion area at ECE (p value=0.032). Under the Special Protocol Assessment (SPA) agreed with the FDA, the protocols pre-specified that MRSA patients from the SOLO studies would be pooled for the evaluation of efficacy.
# The combined SOLO studies represented 1,987 patients in an intent-to-treat population for evaluation of oritavancin in the treatment of ABSSSI in controlled clinical trials and assessed one of the largest subsets of patients with documented MRSA infection (405 patients).
# [2] = test system: ABSSSI caused by susceptible gram-positive bacteria, including MRSA; assay: SOLO II Phase 3 trial, efficacy; type: in vivo, human
# Text: as §1
# In SOLO II, all protocol-specified primary and secondary efficacy endpoints were met. […] The efficacy was similar in the overall population and in those patients with microbiologically confirmed MRSA infections.
# [3] = Predicted free peak and free trough levels in plasma; type: in vivo; settings: non-protein bound drug, representative human dose: oritavancin 1200 mg, vancomycin 1000 mg, daptomycin 4 mg/kg, linezolid 500 mg
# Procedure: ORI concentrations were chosen to approximate free peak (fCmax; defined as the peak concentration of non-protein bound drug) and free trough (fCmin; defined for ORI as the concentration of non-protein bound drug at 24 h) levels in plasma following administration of a 1200 mg dose (Belley et al., 2013 Table 10). ORI protein binding is estimated at approximately 85% in serum from nonclinical species and humans (Arhin et al., 2010). Doubling dilution concentrations of comparator agents were likewise chosen to approximate their fCmax and fCmin levels in plasma when administered at approved dosages for complicated skin and skin structure infections, using pharmacokinetic data and protein binding values from their respective package inserts (DAP [Cubicin®]; LZD [Zyvox®]; VAN [Vancocin®]; Table 3).
# [4] = SOLO I Phase 3 trial, safety assessments (safety population); type: in vivo, human
# Text: The study design was consistent with current guidelines from FDA (U.S. Food and Drug Administration. Guidance for Industry Acute Bacterial Skin and Skin Structure Infections: Developing Drugs for Treatment (DRAFT GUIDANCE). Available via Internet at the URL containing: fda.gov/downloads/Drugs/GuidanceComplianceRegulatoryInformation/Guidances/ucm071185.p df) and EMA (European Medicines Agency Committee for Medicinal Products for Human Use. Addendum to the note for guidance on evaluation of medicinal products indicated for treatment of bacterial infections (CHMP/EWP/558/95 REV 2) to address indication-specific clinical data (draft). 2012. Available via Internet at the URL containing: ema.europa.eu/docs/en_GB/document_library/Scientific_guideline/2012/07/WC500129443.pdf) and Foundation for National Institutes of Health guidance was considered for analyses (Talbot G H etl. Clin Infect Dis. 2012. 55(8):1114-1121). The protocol was approved by institutional review boards/ethics committees and all patients provided written informed consent. The study was conducted from January 2011 through October 2012 at 46 study centers in Mexico, Spain, Germany, Romania, Russia, Ukraine, Israel, India, and the United States. […] Aztreonam and metronidazole were permitted for gram-negative and anaerobic cover, respectively.
# Safety assessments (Safety Population) included vital signs, electrocardiogram (ECG), clinical chemistry and hematology parameters, reporting of adverse events (AEs) and serious adverse events (SAEs). Treatment-emergent adverse events (TEAEs) were defined as AEs with onset or worsening severity at or after the first dose of study drug through the Safety Follow-up Visit (Day 60+7 days).
# For safety assessments, descriptive analyses were performed in the safety population for all safety parameters by treatment group.
# The intent-to-treat (ITT) population included all patients randomized into the study. The modified intent-to-treat (mITT) was the primary population for all the efficacy analyses and included all randomized patients who received any study drug. The clinically evaluable (CE) population consisted of all mITT patients who met the inclusion/exclusion criteria, received the full-course of randomized study treatment (for a minimum of 7 days), and had investigator assessment for clinical cure at PTE. The CE population was used to confirm the efficacy analyses. The microbiologically ITT (MicroITT) population consisted of all mITT patients with baseline gram-positive pathogen(s) known to cause ABSSSI and it was used for the secondary efficacy analyses. The microbiologically evaluable (MicroE) population was used to confirm the secondary efficacy analyses and consisted of all patients who were in both the MicroITT and CE populations. The safety population was the primary population for all the safety analyses, and consisted of all patients who were dosed with study drug, irrespective of randomization. Treatment classification was based on the actual treatment received.
# [5] = SOLO I and SOLO II combined, safety; type: in vivo, human
# [6] = cited from earlier work
# [7] = confirmed MRSA, MicroITT, oritavancin n = 204, vancomycin n = 201
# [8] = mITT, oritavancin n = 978, vancomycin n = 981
# [9] = confirmed MRSA, Microbiological ITT, ECE
# [10] = confirmed MRSA, Microbiological ITT, ECE, oritavancin n = 100, vancomycin n = 101
# [11] = mITT, ECE, oritavancin n = 503, vancomycin n = 502
# [12] = mITT, ECE, oritavancin vs vancomycin
smiles,measurement,setting,value
"CN[C@H](CC(C)C)C(=O)N[C@H]1C(=O)N[C@@H](CC(N)=O)C(=O)N[C@H]2C(=O)N[C@H]3C(=O)N[C@H](C(=O)N[C@H](C(=O)O)c4cc(O)cc(O)c4-c4cc3ccc4O)[C@H](O[C@H]3C[C@](C)(N)[C@@H](O)[C@H](C)O3)c3ccc(c(Cl)c3)Oc3cc2cc(c3O[C@@H]2O[C@H](CO)[C@@H](O)[C@H](O)[C@H]2O[C@H]2C[C@](C)(NCc3ccc(-c4ccc(Cl)cc4)cc3)[C@@H](O)[C@H](C)O2)Oc2ccc(cc2Cl)[C@H]1O [Oritavancin, N^DISACC-(4-(4-chlorophenyl)benzyl)A82846B]","FDA primary endpoint: Cessation of spread, absence of fever, no rescue antibiotics","[1]; confirmed MRSA, MicroITT",81.4%
same,≧20% reduction of lesion area,"[1]; confirmed MRSA, MicroITT",93.1%
same,"FDA primary endpoint: Cessation of spread, absence of fever, no rescue antibiotics, number of patients",[1]; [7],166
same,"≧20% reduction of lesion area, number of patients",[1]; [7],190
same,"% Difference (95% CI), FDA primary endpoint","[1]; confirmed MRSA, MicroITT","0.8 (−6.9, 8.4) %"
same,"% Difference (95% CI), ≧20% reduction of lesion area","[1]; confirmed MRSA, MicroITT, p value = 0.032","6.1 (0.5, 11.6)* %"
same,EMA primary endpoint: Investigator-assessed clinical cure,"[1]; confirmed MRSA, MicroITT",83.3%
same,"EMA primary endpoint: Investigator-assessed clinical cure, number of patients",[1]; [7],170
same,"% Difference (95% CI), investigator-assessed clinical cure","[1]; confirmed MRSA, MicroITT","−0.7 (−7.9, 6.4) %"
same,"FDA primary endpoint: Cessation of spread, absence of fever, no rescue antibiotics",[1]; mITT,81.2%
same,≧20% reduction of lesion area,[1]; mITT,86.4%
same,"FDA primary endpoint: Cessation of spread, absence of fever, no rescue antibiotics, number of patients",[1]; [8],794
same,"≧20% reduction of lesion area, number of patients",[1]; [8],845
same,"% Difference (95% CI), FDA primary endpoint",[1]; mITT,"0.2 (−3.3, 3.7) %"
same,"% Difference (95% CI), ≧20% reduction of lesion area",[1]; mITT,"2.3 (−0.9, 5.4) %"
same,EMA primary endpoint: Investigator-assessed clinical cure,[1]; mITT,81.2%
same,"EMA primary endpoint: Investigator-assessed clinical cure, number of patients",[1]; [8],794
same,"% Difference (95% CI), investigator-assessed clinical cure",[1]; mITT,"1.0 (−2.5, 4.5) %"
same,Efficacy versus vancomycin for ECE and PTE endpoints,[1]; combined SOLO trials,non-inferior to vancomycin
same,Efficacy versus vancomycin for ECE and PTE endpoints,[2],non-inferior to vancomycin
same,"FDA primary endpoint: Cessation of spread, absence of fever, no rescue antibiotics",[2]; [9],82.0%
same,≧20% reduction of lesion area,[2]; [9],96.0%
same,"FDA primary endpoint: Cessation of spread, absence of fever, no rescue antibiotics, number of patients",[2]; [10],82
same,"≧20% reduction of lesion area, number of patients",[2]; [10],96
same,EMA primary endpoint: Investigator-assessed clinical cure,"[2]; confirmed MRSA, Microbiological ITT, PTE",84.0%
same,"EMA primary endpoint: Investigator-assessed clinical cure, number of patients","[2]; confirmed MRSA, Microbiological ITT, PTE, oritavancin n = 100, vancomycin n = 101",84
same,"FDA primary endpoint: Cessation of spread, absence of fever, no rescue antibiotics","[2]; mITT, ECE",80.1%
same,≧20% reduction of lesion area,"[2]; mITT, ECE",85.9%
same,"FDA primary endpoint: Cessation of spread, absence of fever, no rescue antibiotics, number of patients",[2]; [11],403
same,"≧20% reduction of lesion area, number of patients",[2]; [11],432
same,"% Difference (95% CI), FDA primary endpoint",[2]; [12],"−2.7 (−7.5, 2.0) %"
same,"% Difference (95% CI), ≧20% reduction of lesion area",[2]; [12],"0.6 (−3.7, 5.0) %"
same,EMA primary endpoint: Investigator-assessed clinical cure,"[2]; mITT, PTE",82.7%
same,"EMA primary endpoint: Investigator-assessed clinical cure, number of patients","[2]; mITT, PTE, oritavancin n = 503, vancomycin n = 502",416
same,"% Difference (95% CI), investigator-assessed clinical cure","[2]; mITT, PTE, oritavancin vs vancomycin","2.2 (−2.6, 7.0) %"
same,Doubling Dilution Concentration Representing Predicted fCmax,[3],16 mg/L
same,Cellulitis SAEs considered new events,[4],2
same,Discontinuation of study drug due to cellulitis,[4],2 patients
same,Frequency of SAEs,[4],7.4%
same,Histamine-like reactions (Red Man syndrome),[4],No histamine-like reactions occurred
same,Proportion of patients experiencing a TEAE that led to discontinuation of the study drug,[4],3.8%
same,Skin and subcutaneous tissue adverse events,[4],11.6%
same,Patients who died during the study,[4]; all determined unrelated to study drug,one
same,Infusion site reaction AEs,[4]; post-hoc analysis,4.0%
same,Pruritus AEs,[4]; post-hoc analysis,3.4%
same,Incidence of diarrhea,[4]; safety population,4.9%
same,Incidence of headache,[4]; safety population,7.2%
same,Incidence of nausea,[4]; safety population,11.0%
same,Incidence of vomiting,[4]; safety population,4.9%
same,Overall safety and tolerability,[4]; single 1200 mg dose,safe and well-tolerated
same,Patients with adverse events leading to study drug discontinuation,[5],3.7%
same,Treatment emergent adverse events considered by investigators as related to study drug,[5]; p=0.002,22.2%
same,Patients reported to experience at least one adverse event,[5]; safety population,55.3%
same,Free Fraction,"[6]; protein binding values from Arhin et al., 2010 (oritavancin) and package inserts (comparators)",0.15
same,Protein binding,"[6]; serum from nonclinical species and humans (Arhin et al., 2010)",approximately 85%
